# Experimental data as given in patent US20150105252A1, “SUBSTITUTED PYRAZOLES AS HERBICIDES” (E I DU PONT DE NEMOURS AND COMPANY, priority 2013, published 2015).
# Key:
# nutsedge, yellow = test: Test C preemergence; assay type: in vivo, Cyperus esculentus
# Outline: (§1)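 Visual rating, 0–100 scale (0 no effect, 100 complete control), vs untreated controls after 13–15 d greenhouse. Pre: seeds in loam/sand, treated at sowing. Post: plants in peat-based mix, 1- to 4-leaf (2–18 cm). Solvent + surfactant formulation, non-phytotoxic.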
# galium [1] = test: Test C preemergence; assay type: in vivo, Galium aparine
# Outline: as §1
# foxtail, giant [2] = test: Test C postemergence; assay type: in vivo, Setaria faberii
# Outline: as §1
# blackgrass = test: Test C postemergence; assay type: in vivo, Alopecurus myosuroides
# Outline: as §1
# morningglory [3] = test: Test A postemergence; assay type: in vivo, Ipomoea spp.; conditions: Postemergence
# Outline: (§2)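 Injury readout: eye-scored versus untreated controls, 0 to 100. Exposure period: ~10 days, greenhouse. Application: soil-directed spray over sown seed (pre) or spray on seedlings 2–10 cm tall with one or two leaves (post), compound carried in non-phytotoxic solvent including surfactant.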
# corn [4] = test: Test A postemergence; assay type: in vivo, Zea mays; conditions: Postemergence
# Outline: as §2
# crabgrass, large [5] = test: Test A postemergence; assay type: in vivo, Digitaria sanguinalis; conditions: Postemergence
# Outline: as §2
# ryegrass, Italian = test: Test C preemergence; assay type: in vivo, Lolium multiflorum
# Outline: as §1
# foxtail, giant [6] = test: Test A postemergence; assay type: in vivo, Setaria faberii; conditions: Postemergence
# Outline: as §2
# morningglory [7] = test: Test C postemergence; assay type: in vivo, Ipomoea coccinea
# Outline: as §1
# barnyardgrass = test: Test C postemergence; assay type: in vivo, Echinochloa crus-galli
# Outline: as §1
# corn [8] = test: Test C preemergence; assay type: in vivo, Zea mays
# Outline: as §1
# waterhemp = test: Test C preemergence; assay type: in vivo, Amaranthus rudis
# Outline: as §1
# galium [9] = test: Test C postemergence; assay type: in vivo, Galium aparine
# Outline: as §1
# crabgrass, large [10] = test: Test A preemergence; assay type: in vivo, Digitaria sanguinalis; conditions: preemergence
# Outline: as §2
# wheat = test: Test A preemergence; assay type: in vivo, Triticum aestivum; conditions: preemergence, 125 g ai/ha, visual injury approx. 10 days after treatment
# Outline: as §2
# [11] = Preemergence, rate head not shown (block before 16 g ai/ha), scale 0 to 100
# [12] = preemergence, 62 g ai/ha, scale 0 to 100 (0 no effect, 100 complete control), 13 to 15 days
# [13] = preemergence, 125 g ai/ha, 13 to 15 days, scale 0 to 100, 0 = no effect, 100 = complete control
# [14] = preemergence, 250 g ai/ha, scale 0 to 100, 0 is no effect, 100 is complete control
# [15] = Postemergence, 31 g ai/ha, visually evaluated after 13 to 15 days
# [16] = postemergence, 62 g ai/ha, scale 0 to 100
# [17] = postemergence, 250 g ai/ha, scale 0 to 100 (0 no effect, 100 complete control)
# [18] = postemergence, 125 g ai/ha, scale 0 to 100, 0 no effect, 100 complete control
# [19] = 125 g ai/ha, 0 to 100 scale, 0 no effect, 100 complete control
# [20] = 500 g ai/ha, 0 to 100 scale (0 no effect, 100 complete control)
smiles,measurement,setting,value
CCc1cc(C(=O)NCC(F)(F)F)nn1Cc1ccnc(Br)c1 [Compound 224],"Plant response rating, Nutsedge, Yellow","nutsedge, yellow; [11]",85
same,"Nutsedge, Yellow plant response rating","nutsedge, yellow; [12]",80
same,"Plant response rating, Nutsedge, Yellow","nutsedge, yellow; [13]",70
same,"Nutsedge, Yellow plant response rating","nutsedge, yellow; [14]",90
same,"Plant response rating, Galium",galium [1]; [11],80
same,Galium plant response rating,galium [1]; [12],80
same,"Plant response rating, Galium",galium [1]; [13],100
same,Galium plant response rating,galium [1]; [14],90
same,"Plant response rating (scale of 0 to 100 where 0 is no effect and 100 is complete control), Foxtail, Giant","foxtail, giant [2]; [15]",5
same,"Foxtail, Giant plant response rating","foxtail, giant [2]; [16]",5
same,"Plant response rating, Foxtail, Giant","foxtail, giant [2]; [17]",5
same,"Plant response rating, Foxtail, Giant","foxtail, giant [2]; [18]",5
same,"Plant response rating (scale of 0 to 100 where 0 is no effect and 100 is complete control), Blackgrass",blackgrass; [15],5
same,Blackgrass plant response rating,blackgrass; [16],5
same,"Plant response rating, Blackgrass",blackgrass; [17],20
same,"Plant response rating, Blackgrass",blackgrass; [18],5
same,Morningglory plant response rating,morningglory [3]; [19],30
same,Morningglory plant response rating,morningglory [3]; [20],100
same,Corn plant response rating,corn [4]; [19],60
same,Corn plant response rating,corn [4]; [20],90
same,"Crabgrass, Large plant response rating","crabgrass, large [5]; [19]",90
same,"Crabgrass, Large plant response rating","crabgrass, large [5]; [20]",100
same,"Plant response rating, Ryegrass, Italian","ryegrass, Italian; [11]",10
same,"Ryegrass, Italian plant response rating","ryegrass, Italian; [12]",60
same,"Plant response rating, Ryegrass, Italian","ryegrass, Italian; [13]",50
same,"Ryegrass, Italian plant response rating","ryegrass, Italian; [14]",30
same,"Foxtail, Giant plant response rating","foxtail, giant [6]; [19]",90
same,"Foxtail, Giant plant response rating","foxtail, giant [6]; [20]",100
same,"Plant response rating (scale of 0 to 100 where 0 is no effect and 100 is complete control), Morningglory",morningglory [7]; [15],25
same,Morningglory plant response rating,morningglory [7]; [16],20
same,"Plant response rating, Morningglory",morningglory [7]; [17],65
same,"Plant response rating, Morningglory",morningglory [7]; [18],25
same,"Plant response rating (scale of 0 to 100 where 0 is no effect and 100 is complete control), Barnyardgrass",barnyardgrass; [15],0
same,Barnyardgrass plant response rating,barnyardgrass; [16],10
same,"Plant response rating, Barnyardgrass",barnyardgrass; [17],10
same,"Plant response rating, Barnyardgrass",barnyardgrass; [18],10
same,"Plant response rating, Corn","corn [8]; Preemergence, rate head not shown (block before 16 g ai/ha), scale 0 to 100, 100 is complete control",0
same,Corn plant response rating,corn [8]; [12],5
same,"Plant response rating, Corn",corn [8]; [13],15
same,Corn plant response rating,corn [8]; [14],60
same,"Plant response rating, Waterhemp",waterhemp; [11],100
same,Waterhemp plant response rating,waterhemp; [12],100
same,"Plant response rating, Waterhemp",waterhemp; [13],100
same,Waterhemp plant response rating,waterhemp; [14],100
same,"Plant response rating (scale of 0 to 100 where 0 is no effect and 100 is complete control), Galium",galium [9]; [15],50
same,Galium plant response rating,galium [9]; [16],55
same,"Plant response rating, Galium",galium [9]; [17],90
same,"Plant response rating, Galium",galium [9]; [18],40
same,"Crabgrass, Large plant response rating (0 to 100 scale)","crabgrass, large [10]; 125 g ai/ha, visual injury approx. 10 days after treatment",100
same,"Crabgrass, Large plant response rating","crabgrass, large [10]; 500 g ai/ha, visual injury after approx. 10 days, 0 to 100 scale (0 no effect, 100 complete control)",100
same,Wheat plant response rating (0 to 100 scale),wheat,30
